Test results reported in patent US20080003606A1, “DIAGNOSIS OF TAMOXIFEN SENSITIVITY” (priority 2004, published 2008).

System: ER positive invasive breast cancer
Assay: Randomized trial of 2 years of adjuvant tamoxifen vs no adjuvant treatment, survival analysed by cyclin D1/A2 expression and CCND1 amplification
Format: in vivo, human
Conditions: for Overall Survival RR / Recurrence Free Survival RR: Cox univariate, ER+, tamoxifen vs control (1.00)
Procedure: During 1984-1991, 564 premenopausal patients or patients under 50 years with stage 11 (pT2 N0 M0, pT1 N1 M0 and pT2, N1 M0) invasive breast cancer were enrolled in a randomized trial of 2 years of adjuvant tamoxifen treatment with a daily dosage of either 40 mg (study center 1) or 20 mg (study center 2) or no adjuvant treatment (detailed in [14]).
All available archived primary tumor specimens were collected (n=500). Areas with invasive cancer were marked on the H&E stained slides and two 0.6 mm tissue cores were taken from each donor block and mounted in a recipient block using an automated arrayer ((ATA-27, Beecher Inc, WI, USA).
For cyclin A2 expression, only the fraction of positively staining nuclei were calculated (405 cases) and subdivided into five groups based on the following score: 0 (0-1%), 1 (2-10%), 2 (11-25%), 3 (26-50%) and 4 (>50%). For cyclin D1, the nuclear fraction and intensity as well as the cytoplasmic staining intensity was evaluated (463 cases). The nuclear fractions were divided into the following five subgroups: 0 (0%), 1 (1-25%), 2 (26-50%), 3 (51-75%) and 4 (>75%). The nuclear and cytoplasmic intensity was evaluated as absent=0, weak=1, intermediate=2 and strong=3. The TMA:s had previously been analyzed immunohistochemically for estrogen- (ER) and progesterone (PR) receptor status (anti-ER Clone 6F11 and anti-PgR Clone 16) using the Ventana Benchmark system (Ventana Medical Systems Inc., AZ, USA). In line with the clinically established cut-off used for hormone receptor assessment, tumors with more than 10% positively staining nuclei were considered positive.
For fluorescence in situ (FISH) analysis of CCND1 gene amplification, two direct-labeled probes were used, LSI cyclin D1 (11q13) SpectrumOrange against CCND1 (11q13) and CEP 11 SpectrumGreen (Vysis Inc., Illinois, USA) against the centromere of chromosome 11. The FISH analysis was performed according to the standard protocol recommended by the manufacturer and according to “LSI® Locus Specific Identifier DNA probes” from Vysis Inc., Illinois. Briefly, tissue sections were de-paraffinized in xylene and alcohol and air-dried. The slides were then microwave-treated in Target Retrieval Solution pH 7.3 (DAKO A/S, Glostrup, Denmark) for 5+5 minutes and treated with 100 μl pepsin (Digest-All 3, Zymed, California, USA) for 8 minutes in 37° C. and washed in water. The de-paraffinized slides were denatured in 70% formamide/2×SSC at 73° C. for 5 minutes followed by dehydration in graded ethanol. A denatured mixture of 1 μl LSI probe, 2 μl pH2O and 7 μl LSI hybridization buffer was added on each slide and incubated at 37° C. overnight. The slides were then washed with 0.4×SSC/0.3% Nonidet P40 at 37±1° C. for 2 minutes followed by a 2×SSC/0.1% NP40 wash at ambient temperature for 1 minute to remove non-specifically bound probe.
For evaluation, the CCND1 gene was considered amplified when the ratio of orange/green was >1. Non-amplified cases were classified as 0, cases with up to 10 copies as 1 and >10 copies as 2.
Baseline prognostic and patient characteristics between the original study group, patients with available FISH data (n=280) and patients without FISH data (n=284) were compared using the chi-square test to exclude the possibility of selection bias. Baseline prognostic and patients characteristics were also compared between amplified and non-amplified cases using the same approach as well as the marker distribution according to trial arm. For evaluation of treatment response, only tumors with >10% ER positivity were included. Kaplan-Meier and log-rank tests and univariate Cox regression analyses were used for recurrence free survival (RFS), breast cancer survival (BCS) and overall survival (OS).

[1] = Multivariate Cox model with A2 NF and interaction variable, adjusted for age, tumor size, NHG, Ki-67 and nodal status
[2] = Multivariate Cox model with CCND1 amplification and interaction variable, adjusted for age, tumor size, NHG, Ki-67 and nodal status
[3] = Multivariate Cox model with D1 NF and interaction variable, adjusted for age, tumor size, NHG, Ki-67 and nodal status
[4] = Multivariate Cox model with D1 NI and interaction variable, adjusted for age, tumor size, NHG, Ki-67 and nodal status
[5] = Multivariate Cox model, adjusted for age, tumor size, NHG, Ki-67 and nodal status

Structure (SMILES): CC/C(=C(\c1ccccc1)c1ccc(OCCN(C)C)cc1)c1ccccc1 [tamoxifen]
- tamoxifen effect (CCND1-amplified tumors without high cyclin D1 protein intensity or >50% cyclin D1 positive cells): clear adverse tamoxifen effect
- Overall Survival RR (CCND1 amplified): 2.13
- Recurrence Free Survival RR (CCND1 amplified): 2.22
- Overall Survival RR (CCND1 not amplified): 0.43
- Recurrence Free Survival RR (CCND1 not amplified): 0.39
- Overall Survival RR (Cyclin A2 nf <10%): 0.72
- Recurrence Free Survival RR (Cyclin A2 nf <10%): 0.51
- Overall Survival RR (Cyclin A2 nf >10%): 0.92
- Recurrence Free Survival RR (Cyclin A2 nf >10%): 0.86
- Overall Survival RR (Cyclin D1 nf <25%): 0.65
- Recurrence Free Survival RR (Cyclin D1 nf <25%): 0.62
- Overall Survival RR (Cyclin D1 nf >25%): 0.78
- Recurrence Free Survival RR (Cyclin D1 nf >25%): 0.61
- Overall Survival RR (Cyclin D1 ni high): 0.77
- Recurrence Free Survival RR (Cyclin D1 ni high): 0.84
- Overall Survival RR (Cyclin D1 ni low/intermediate): 0.72
- Recurrence Free Survival RR (Cyclin D1 ni low/intermediate): 0.59
- Overall survival RR, Treatment tamoxifen vs control [1]: 0.64
- Recurrence free survival RR, Treatment tamoxifen vs control [1]: 0.46
- Overall survival RR, Treatment tamoxifen vs control [2]: 0.41
- Recurrence free survival RR, Treatment tamoxifen vs control [2]: 0.37
- Overall survival RR, Treatment tamoxifen vs control [3]: 0.67
- Recurrence free survival RR, Treatment tamoxifen vs control [3]: 0.62
- Overall survival RR, Treatment tamoxifen vs control [4]: 0.78
- Recurrence free survival RR, Treatment tamoxifen vs control [4]: 0.62
- Overall survival RR, Interaction variable tamoxifen × A2 nf [5]: 1.40
- Overall survival RR, Interaction variable tamoxifen × CCND1 [5]: 5.85
- Overall survival RR, Interaction variable tamoxifen × D1 nf [5]: 1.29
- Overall survival RR, Interaction variable tamoxifen × D1 ni [5]: 1.00
- Recurrence free survival RR, Interaction variable tamoxifen × A2 nf [5]: 1.93
- Recurrence free survival RR, Interaction variable tamoxifen × CCND1 [5]: 6.26
- Recurrence free survival RR, Interaction variable tamoxifen × D1 nf [5]: 0.98
- Recurrence free survival RR, Interaction variable tamoxifen × D1 ni [5]: 1.27
- difference in treatment response, multivariate interaction variable (node positive patients, CCND1-amplified tumors): more then nine-fold
- 10 year RFS (node positive patients, amplified tumors, treated arm (untreated 68%)): 13%
- difference in tamoxifen treatment effect (patients with CCND1-amplified tumors, multivariate interaction analyses): 6-9 fold
- 10 years RFS (patients with amplified tumors, tamoxifen treated arm (untreated 62%)): 29%
- 10 years OS (patients with amplified tumors, tamoxifen treated arm (untreated 74%)): 56%
- proportional 10-year recurrence free survival (RFS) (patients with non-amplified tumors, treatment arm (control 44%)): 74%
- 10-year overall survival (OS) (patients with non-amplified tumors, treatment arm (control 61%)): 78%
- tamoxifen response (tumors with >10% positive cyclin A2 nuclei): lack of response
- tamoxifen response (tumors with less than 10% positive cyclin A2 nuclei): responded well
- tamoxifen response regarding recurrence free survival (RFS) (tumors with strong nuclear cyclin D1 staining intensity): did not respond
